Source: patent US4268503A, “Antibacterial composition” (Fujisawa Pharmaceutical Co., Ltd., priority 1979, dated 1981)

Key:
Assay type in all cases: cell-based
Klebsiella pneumoniae 8 = assay: Test 8: synergistic activity in various combination ratios (isobologram, growth); parameters: key: the symbol "+" means that the test microorganism grew; the symbol "-" means that the test microorganism did not grow
Experimental: Into a Nutrient broth (Difco) containing prescribed amounts of monosodium salt of 3-(N-formyl-N-hydroxyamino)-propylphosphonic acid and gentamicin sulfate, was inoculated 0.5% of 10-fold dilution of cultured broth of pathogen which was cultured overnight in Nutrient broth (Eiken). After the incubation was carried out at 37° C. for 18 hours, the growth of the test organism was observed.

[1] = tested on: Enterobacter cloacae 1401-4; assay: Tests 2 and 3: MIC and synergism (FIC) in vitro; settings: 14014, E. cloacae 1401-4, Nutrient agar, 10^5 cells/ml, 37° C., 20 hours
Experimental: (§1) On a Nutrient agar (Difco) containing prescribed amount of each of monosodium salt of 3-(N-formyl-N-hydroxyamino)propylphosphonic acid, monosodium salt of ampicillin and a mixture of 3-(N-formyl-N-hydroxyamino)propylphosphonic acid and monosodium salt of ampicillin (1:1 by weight), there was streaked a loopful of cultured broth of each pathogen, which was cultured overnight in Nutrient broth (Difco), in a concentration of 10^5 cells/ml. After the incubation was carried out at 37° C. for 20 hours, MIC values were determined.
(§2) FIC values and FIC Index were calculated in substantially the same manner as described in Test 1.
(§3) Synergistic activity of 3-(N-formyl-N-hydroxyamino)propylphosphonic acid and cefazolin; that of 3-(N-formyl-N-hydroxyamino)propylphosphonic acid and ticarcillin; and that of 3-(N-formyl-N-hydroxyamino)propylphosphonic acid and nocardicin A were tested in vitro in substantially the same manner as described in the above Test 2.

[2] = tested on: Klebsiella pneumoniae NCTC 418; assay: Tests 2 and 3: MIC and synergism (FIC) in vitro; settings: NCTC418, 20 h
Experimental: as §1, §2, §3

[3] = tested on: Proteus mirabilis 1432-75; assay: Tests 2 and 3: MIC and synergism (FIC) in vitro; settings: Proteus mirabilis, 143275, 20 h
Experimental: as §1, §2, §3

[4] = tested on: Salmonella typhimurium 1406; assay: Tests 2 and 3: MIC and synergism (FIC) in vitro; settings: Salmonella enterica, 20 h
Experimental: as §1, §2, §3

[5] = tested on: Serratia marcescens 1421-4; assay: Tests 2 and 3: MIC and synergism (FIC) in vitro; settings: 14214, S. marcescens 1421-4, Nutrient agar, 10^5 cells/ml, 37° C., 20 hours
Experimental: as §1, §2, §3

[6] = tested on: Staphylococcus epidermidis 1601-1; assay: Tests 2 and 3: MIC and synergism (FIC) in vitro; settings: 16011, S. epidermidis 1601-1, Nutrient agar, 10^5 cells/ml, 37° C., 20 hours
Experimental: as §1, §2, §3

gentamicin
growth of test microorganism (Klebsiella pneumoniae 8; gentamicin sulfate 0.001, phosphonic acid 0 mcg/ml): +
growth of test microorganism (Klebsiella pneumoniae 8; gentamicin sulfate 0.003, phosphonic acid 0 mcg/ml): +
growth of test microorganism (Klebsiella pneumoniae 8; gentamicin sulfate 0.006, phosphonic acid 0 mcg/ml): +
growth of test microorganism (Klebsiella pneumoniae 8; gentamicin sulfate 0.01, phosphonic acid 0 mcg/ml): +
growth of test microorganism (Klebsiella pneumoniae 8; gentamicin sulfate 0.025, phosphonic acid 0 mcg/ml): +
growth of test microorganism (Klebsiella pneumoniae 8; gentamicin sulfate 0.05, phosphonic acid 0 mcg/ml): -

CC1(C)S[C@@H]2[C@H](NC(=O)[C@H](C(=O)O)c3ccsc3)C(=O)N2[C@H]1C(=O)O [ticarcillin]
MIC [1]: 50 mg/L
MIC [2]: 100 mg/L
MIC [3]: 0.78 mg/L
MIC [4]: 1.56 mg/L
MIC [5]: 25 mg/L
MIC [6]: 3.13 mg/L

O=CN(O)CCCP(=O)(O)O [3-(N-formyl-N-hydroxyamino)propylphosphonic acid]
growth of test microorganism (Klebsiella pneumoniae 8; gentamicin sulfate 0, phosphonic acid 0.78 mcg/ml, 37° C., 18 hours): +
growth of test microorganism (Klebsiella pneumoniae 8; gentamicin sulfate 0, phosphonic acid 1.56 mcg/ml): +
growth of test microorganism (Klebsiella pneumoniae 8; gentamicin sulfate 0, phosphonic acid 3.13 mcg/ml): +
growth of test microorganism (Klebsiella pneumoniae 8; gentamicin sulfate 0, phosphonic acid 6.25 mcg/ml): +
growth of test microorganism (Klebsiella pneumoniae 8; gentamicin sulfate 0, phosphonic acid 12.5 mcg/ml): +
growth of test microorganism (Klebsiella pneumoniae 8; gentamicin sulfate 0, phosphonic acid 25 mcg/ml): -
